Reference: patent US9611256B2, “Alkyne-, azide- and triazole-containing flavonoids as modulators for multidrug resistance in cancers” (The Hong Kong Polytechnic University, priority 2012, dated 2017)

Tests used:
in vitro = conditions: mouse
BCRP [1] = biological target: T1, BCRP (Homo sapiens, UniProt Q9UNQ0); assay: cell-based
T1 sequence (Q9UNQ0 1-655): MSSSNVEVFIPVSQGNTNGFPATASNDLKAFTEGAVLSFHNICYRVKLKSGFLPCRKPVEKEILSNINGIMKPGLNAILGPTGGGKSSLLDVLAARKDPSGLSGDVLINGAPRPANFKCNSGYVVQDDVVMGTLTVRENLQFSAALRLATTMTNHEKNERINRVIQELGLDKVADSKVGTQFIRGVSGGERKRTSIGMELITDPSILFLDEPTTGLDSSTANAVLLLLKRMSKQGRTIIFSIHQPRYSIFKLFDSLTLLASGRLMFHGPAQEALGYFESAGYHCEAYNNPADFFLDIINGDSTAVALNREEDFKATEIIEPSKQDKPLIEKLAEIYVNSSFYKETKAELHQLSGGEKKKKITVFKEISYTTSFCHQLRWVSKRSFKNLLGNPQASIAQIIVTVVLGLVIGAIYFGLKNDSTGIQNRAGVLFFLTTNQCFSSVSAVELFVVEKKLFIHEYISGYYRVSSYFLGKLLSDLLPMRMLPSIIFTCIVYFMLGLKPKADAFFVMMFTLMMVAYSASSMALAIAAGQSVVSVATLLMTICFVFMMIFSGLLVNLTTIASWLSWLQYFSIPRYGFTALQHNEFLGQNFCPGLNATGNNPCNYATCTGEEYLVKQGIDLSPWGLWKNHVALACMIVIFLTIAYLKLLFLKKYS

BCRP [2] = biological target: T1, BCRP; assay: Reversal of BCRP-mediated topotecan resistance in MCF7-MX100 cells (cell proliferation assay); conditions: for Topotecan resistance of MCF7-MX100 Therapeutic index: (IC50 towards L929 or Raw264.7)/(EC50 for reversing drug resistance); for % of reversion of sensitivity of MCF7-MX100 towards topotecan: triazole dimers at 1.0 μM
[3] = test system: P-gp, MRP1 and BCRP transporters; assay: Selectivity for ABC transporters, determined from % of reversion (Tables 1 and 2); assay type: cell-based, human; conditions: determined from % of reversion in Table 1 (>80% strongly, 79-50% moderately selective)
Text: Generally, the triazole dimers library can be divided into mono-selective, dual-selective and multi-selective ABC transporter modulators. Table 2 summarizes the selectivity of different active triazole dimers and some monomeric azides for the ABC transporters. […] From the study, it seems that the simple monomeric azides could be a highly BCRP-selective inhibitor. […] It is possible that differently selective (mono-, dual- and multi-) inhibitors of drug transporters could be potentially useful tools for investigation of complicated drug-resistance phenotypes and eventually, for treatment of drug-resistant cancers caused by overexpression of ABC transporters.
The selectivity of active triazole compounds for various ABC transporters was determined from the Table 1. It would be considered as strongly selective if it causes >80% of reversion. It would be considered as moderately selective if it results in 79-50% of reversion. Overall, the active triazole compounds can be divided into mono-, dual- and multi-selective for P-gp, MRP1 and BCRP transporters.

MRP1 = MRP1 (Homo sapiens, UniProt P33527); assay: Reversal of MRP1-mediated DOX resistance in 2008/MRP1 cells (cell proliferation assay)
Chain of MRP1 (P33527 whole entry): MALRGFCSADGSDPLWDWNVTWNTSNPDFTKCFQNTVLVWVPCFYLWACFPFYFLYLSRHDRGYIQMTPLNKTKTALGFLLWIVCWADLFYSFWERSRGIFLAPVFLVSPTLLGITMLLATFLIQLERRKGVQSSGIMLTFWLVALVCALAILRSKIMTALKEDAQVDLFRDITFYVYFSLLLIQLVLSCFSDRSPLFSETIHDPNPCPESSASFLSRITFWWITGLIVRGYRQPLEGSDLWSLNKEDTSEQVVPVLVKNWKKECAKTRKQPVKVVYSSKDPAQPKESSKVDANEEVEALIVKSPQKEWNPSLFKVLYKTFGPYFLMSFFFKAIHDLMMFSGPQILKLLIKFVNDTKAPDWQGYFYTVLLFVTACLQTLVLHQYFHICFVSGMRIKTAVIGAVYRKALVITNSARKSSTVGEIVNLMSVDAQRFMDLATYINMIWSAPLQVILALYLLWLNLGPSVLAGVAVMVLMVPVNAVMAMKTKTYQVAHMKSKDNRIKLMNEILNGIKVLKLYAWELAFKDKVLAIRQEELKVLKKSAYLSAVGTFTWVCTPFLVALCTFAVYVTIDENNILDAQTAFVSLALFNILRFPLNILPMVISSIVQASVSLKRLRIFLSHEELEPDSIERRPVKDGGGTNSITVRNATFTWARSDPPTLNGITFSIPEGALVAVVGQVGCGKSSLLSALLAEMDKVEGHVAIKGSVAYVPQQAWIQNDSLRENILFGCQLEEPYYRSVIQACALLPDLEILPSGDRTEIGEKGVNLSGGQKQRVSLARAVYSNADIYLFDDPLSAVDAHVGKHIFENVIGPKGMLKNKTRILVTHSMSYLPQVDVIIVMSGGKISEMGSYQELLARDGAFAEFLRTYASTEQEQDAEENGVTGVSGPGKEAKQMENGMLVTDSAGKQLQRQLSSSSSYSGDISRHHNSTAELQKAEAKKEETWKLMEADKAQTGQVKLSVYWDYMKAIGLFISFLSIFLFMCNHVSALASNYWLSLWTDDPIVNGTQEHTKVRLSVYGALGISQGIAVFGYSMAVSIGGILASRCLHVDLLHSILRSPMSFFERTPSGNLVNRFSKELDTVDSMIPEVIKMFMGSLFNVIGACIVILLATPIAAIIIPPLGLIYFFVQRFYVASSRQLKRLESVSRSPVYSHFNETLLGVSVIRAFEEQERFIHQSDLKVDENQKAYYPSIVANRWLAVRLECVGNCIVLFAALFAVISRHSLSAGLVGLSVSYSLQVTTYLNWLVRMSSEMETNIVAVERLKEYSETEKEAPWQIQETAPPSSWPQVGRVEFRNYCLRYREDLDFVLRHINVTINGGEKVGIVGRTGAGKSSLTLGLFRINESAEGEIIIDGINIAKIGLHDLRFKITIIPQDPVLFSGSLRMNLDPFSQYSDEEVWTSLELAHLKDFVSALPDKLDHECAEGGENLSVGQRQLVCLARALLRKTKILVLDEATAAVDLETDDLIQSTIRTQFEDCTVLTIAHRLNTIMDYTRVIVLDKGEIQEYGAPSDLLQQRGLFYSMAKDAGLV

Compound	IC50 at 5 days (in vitro) [nM]	EC50 (BCRP [1]) [nM]	Topotecan resistance of MCF7-MX100 Therapeutic index (BCRP [2])	Selectivity for ABC transporters (P-gp, MRP1, BCRP) [3]	% of reversion of sensitivity of MCF7-MX100 towards topotecan (BCRP [2])	DOX resistance of 2008/MRP1 Therapeutic index (MRP1; (IC50 towards L929 or Raw264.7)/(EC50 for reversing drug resistance))	% of reversion of sensitivity of 2008/MRP1 towards DOX (MRP1; triazole dimers at 1.0 μM)
Cc1ccc2oc(-c3ccc(OCCCCc4cn(CCOCCOCCOc5ccc(-c6cc(=O)c7cc(F)ccc7o6)cc5)nn4)cc3)cc(=O)c2c1 [Ac5Az4, 6-Fluoro-2-(4-(2-(2-(2-(4-(4-(4-(6-methyl-4-oxo-4H-chromen-2-yl)phenoxy)butyl)-1H-1,2,3-triazol-1-yl)ethoxy)ethoxy)ethoxy)phenyl)-4H-chromen-4-one]	> 100000	18	–	–	–	–	–
COC(=O)c1cccc(COc2c(-c3ccc(OCCOCCn4cc(CN(Cc5ccccc5)Cc5cn(CCOCCOc6ccc(-c7oc8ccccc8c(=O)c7OCc7cccc(C(=O)OC)c7)cc6)nn5)nn4)cc3)oc3ccccc3c2=O)c1 [Ac15Az8, Dimethyl 3,3′-(((2,2′-((((((4,4′-((benzylazanediyl)bis(methylene))bis(1H-1,2,3-triazole-4,1-diyl))bis(ethane-2,1-diyl))bis(oxy))bis(ethane-2,1-diyl))bis(oxy))bis(4,1-phenylene))bis(4-oxo-4H-chromene-3,2-diyl))bis(oxy))bis(methylene))dibenzoate]	> 100000	≤ 10	>76923.1	mono-BCRP selectivity	–	–	–
O=c1cc(-c2ccc(OCCOCCn3cc(CN(Cc4ccccc4)Cc4cn(CCOCCOc5ccc(-c6cc(=O)c7ccccc7o6)cc5)nn4)nn3)cc2)oc2ccccc12 [Ac15Az1, 2,2′-((((((4,4′-((Benzylazanediyl)bis(methylene))bis(1H-1,2,3-triazole-4,1-diyl))bis(ethane-2,1-diyl))bis(oxy))bis(ethane-2,1-diyl))bis(oxy))bis(4,1-phenylene))bis(4H-chromen-4-one)]	> 100000	111 ± 9	–	MRP1- and BCRP-dual selectivity	–	–	–
O=c1c(OCc2ccccc2)c(-c2ccc(OCCOCCOCCn3cc(CN(Cc4ccccc4)Cc4cn(CCOCCOCCOc5ccc(-c6oc7ccccc7c(=O)c6OCc6ccccc6)cc5)nn4)nn3)cc2)oc2ccccc12 [Ac15Az5, 2,2′-((((((((4,4′-((Benzylazanediyl)bis(methylene))bis(1H-1,2,3-triazole-4,1-diyl))bis(ethane-2,1-diyl))bis(oxy))bis(ethane-2,1-diyl))bis(oxy))bis(ethane-2,1-diyl))bis(oxy))bis(4,1-phenylene))bis(3-(benzyloxy)-4H-chromen-4-one)]	> 100000	48	–	mono-BCRP selectivity	–	–	–
Cc1ccc2oc(-c3ccc(OCCCCc4cn(CCOCCOCCOc5ccc(-c6oc7ccccc7c(=O)c6OCc6ccccc6)cc5)nn4)cc3)cc(=O)c2c1 [Ac5Az5, 3-(Benzyloxy)-2-(4-(2-(2-(2-(4-(4-(4-(6-methyl-4-oxo-4H-chromen-2-yl)phenoxy)butyl)-1H-1,2,3-triazol-1-yl)ethoxy)ethoxy)ethoxy)phenyl)-4H-chromen-4-one]	> 100000	33	–	Pgp- and BCRP-dual selectivity	–	–	–
COC(=O)c1cccc(COc2c(-c3ccc(OCCOCCOCCn4cc(CCCCOc5ccc6c(=O)cc(-c7ccccc7)oc6c5)nn4)cc3)oc3ccccc3c2=O)c1 [Ac12Az9, Methyl 3-(((4-oxo-2-(4-(2-(2-(2-(4-(4-((4-oxo-2-phenyl-4H-chromen-7-yl)oxy)butyl)-1H-1,2,3-triazol-1-yl)ethoxy)ethoxy)ethoxy)phenyl)-4H-chromen-3-yl)oxy)methyl)benzoate]	> 100000	≤ 10	>71428.6	multi-selectivity towards P-gp, MRP1 and BCRP transporters	about 80.0%	–	–
COC(=O)c1cccc(COc2c(-c3ccc(OCCOCCn4cc(CCCCOc5ccc6c(=O)cc(-c7ccccc7)oc6c5)nn4)cc3)oc3ccccc3c2=O)c1 [Ac12Az8, Methyl 3-(((4-oxo-2-(4-(2-(2-(4-(4-((4-oxo-2-phenyl-4H-chromen-7-yl)oxy)butyl)-1H-1,2,3-triazol-1-yl)ethoxy)ethoxy)phenyl)-4H-chromen-3-yl)oxy)methyl)benzoate]	> 100000	≤ 10	>17857.1	multi-selectivity towards P-gp, MRP1 and BCRP transporters	about 80.0%	–	–
COC(=O)c1cccc(COc2c(-c3ccc(OCCOCCOCCn4cc(CCCCOc5ccc(-c6cc(=O)c7cc(C)ccc7o6)cc5)nn4)cc3)oc3ccccc3c2=O)c1 [Ac5Az9, Methyl 3-(((2-(4-(2-(2-(2-(4-(4-(4-(6-methyl-4-oxo-4H-chromen-2-yl)phenoxy)butyl)-1H-1,2,3-triazol-1-yl)ethoxy)ethoxy)ethoxy)phenyl)-4-oxo-4H-chromen-3-yl)oxy)methyl)benzoate]	> 100000	≤ 10	>111111.1	multi-selectivity towards P-gp, MRP1 and BCRP transporters	about 64.0%	–	–
COC(=O)c1cccc(COc2c(-c3ccc(OCCOCCn4cc(CCCCOc5ccc(-c6cc(=O)c7cc(C)ccc7o6)cc5)nn4)cc3)oc3ccccc3c2=O)c1 [Ac5Az8, Methyl 3-(((2-(4-(2-(2-(4-(4-(4-(6-methyl-4-oxo-4H-chromen-2-yl)phenoxy)butyl)-1H-1,2,3-triazol-1-yl)ethoxy)ethoxy)phenyl)-4-oxo-4H-chromen-3-yl)oxy)methyl)benzoate]	> 100000	≤ 10	>25000.0	Pgp- and BCRP-dual selectivity	about 64.0%	–	–
COC(=O)c1cccc(COc2c(-c3ccc(OCCOCCOCCn4cc(COCCOc5ccc6c(=O)cc(-c7ccccc7)oc6c5)nn4)cc3)oc3ccccc3c2=O)c1 [Ac13Az9]	> 100000	≤ 10	>50000.0	Pgp- and BCRP-dual selectivity	about 80.0%	–	–
COC(=O)c1cccc(COc2c(-c3ccc(OCCOCCOCCN=[N+]=[N-])cc3)oc3ccccc3c2=O)c1 [Az9, Methyl 3-(((2-(4-(2-(2-(2-azidoethoxy)ethoxy)ethoxy)phenyl)-4-oxo-4H-chromen-3-yl)oxy)methyl)benzoate]	20600	≤ 10	2019.6	mono-BCRP selectivity	–	–	–
[N-]=[N+]=NCCOCCOc1ccc(-c2oc3ccccc3c(=O)c2OCc2ccccc2)cc1 [Az10, 2-(4-(2-(2-Azidoethoxy)ethoxy)phenyl)-3-(benzyloxy)-4H-chromen-4-one]	51000	32	–	mono-BCRP selectivity	–	–	–
O=c1cc(-c2ccccc2)oc2cc(OCCN(Cc3ccccc3)Cc3cn(CCOCCOCCOc4ccc(-c5oc6ccccc6c(=O)c5OCc5ccccc5)cc4)nn3)ccc12 [Ac16Az5, 7-(2-(Benzyl((1-(2-(2-(2-(4-(3-(benzyloxy)-4-oxo-4H-chromen-2-yl)phenoxy)ethoxy)ethoxy)ethyl)-1H-1,2,3-triazol-4-yl)methyl)amino)ethoxy)-2-phenyl-4H-chromen-4-one]	> 100000	–	–	mono-MRP1 selectivity	–	>331.5	about 77.8%
